Measurements taken from patent publication US11560370B1, “5-membered heteroaryl carboxamide compounds for treatment of HBV” (Assembly Biosciences, Inc., priority 2018, dated 2023).

Test system: HBV
Assay: Viral production from HepAD38 cells, viral load by qPCR of HBV core sequence
Assay type: cell-based
Conditions: 5 days, supernatant HBV DNA by qPCR, read-out: Viral Load EC50 Activity range
Experimental: Assay Measuring Activity of Test Compounds on Viral Production from HepAD38 Cells
HepAD38 cells grown in a T-150 flask (Corning, cat #: 430825) with Growth Medium (DMEM/F12 (1:1) (Hyclone, cat #: SH30023.02), 1× Pen/Strep (Invitrogen, cat #: 15140-122), 10% FBS (Tissue Culture Biologics, cat #: 101), 250 μg/mL G418 (Alfa Aesar, cat #: J62671), 1 μg/mL Tetracycline (Teknova, cat #: T3320)) were detached with 0.25% trypsin-EDTA to (Invitrogen, cat #: 25200-056). Tetracycline-free treatment medium (15 mL DMEM/F12 (1:1) 1× Pen/step, with 2% FBS, Tet-system approved (Clontech, cat #: 631106) were then added to mix, transferred into a 50 ml conical tube (Falcon, cat #: 21008-918,) and spun at 1300 rpm for 5 min. Pelleted cells were then re-suspended/washed with 50 mL of 1×DPBS (Invitrogen, cat #: 14190-136) 2 times and 50 mL treatment medium twice. HepAD38 cells were then re-suspended with 10 mL of treatment medium, syringed and counted. Wells of 96-well clear bottom TC plate (Corning, cat #: 3904,) were seeded at 50,000 cells/well in 180 μL of treatment medium, and 20 μL of either 10% DMSO (Sigma, cat #: D4540) as controls or a 10× solution of test compounds in 10% DMSO in treatment media was added for a final compound concentration starting at 10 μM, and plates were incubated in 5% CO2 incubator at 37° C. for 5 days.
Subsequently viral load production was assayed by quantitative PCR (qPCR) of the HBV core sequence. PCR reaction mixture containing forward primers HBV-f 5′-CTGTGCCTTGGGTGGCTTT-3′ (IDT DNA), Reverse primers HBV-r 5′-[…]-3′ (IDT DNA), Fluorescent TaqMan™ Probes HBV-probe 5′-FAM/AGCTCCAAA/ZEN/[…]/3IABkFQ-3′ (IDT DNA), 10 μL/well of PerfeCTa® qPCR ToughMix® (Quanta Biosciences, Cat #: 95114-05K), and 6 μL/well of DEPC water (Alfa Aesar, cat #: J62087) was prepared. […] of supernatant was added to 16 μL of the reaction mixture in a qPCR plate (Applied Biosytems, Cat #: 4309849), sealed with a film (Applied Biosystems, Cat #: 4311971), centrifuged for a few seconds, and subsequently run on an Applied Biosystems VIIA7. The PCR mixture was incubated at 45° C. for 5 min, then 95° C. for 10 min, followed by 40 cycles of 10 seconds at 95° C. and 20 seconds at 60° C. Viral load was quantified against known HBV DNA standards by using ViiA™ 7 Software. Viral load in the supernatant from wells with treated cells were compared against viral load in supernatant from DMSO control wells (>3 per plate). Cell viability assay was performed with CellTiter-Glo Luminescent Cell Viability Assay (Promega, cat #: G7573) with modification. Mixed appropriate amount of CellTiter-Glo (CTG) 1×DPBS in a 1:1 ratio, added 100 uL of the mixture to each well followed completely removal of all supernatant in each well without touching cell surface. Incubated the plate at room temperature for 10 min on an orbital shaker, and then read the plate with a plate reader (TECAN M1000 or Envision). EC50 or CC50 values were calculated through curve-fitting of the four-parameter nonlinear-logistic-regression model (GraphPad Prism or Dotmatics). CC50 values were all >10 μM.

`Cn1nc(C2CC3CC(C#N)CC3C2)c(C(=O)Nc2ccc(F)c(Cl)c2)c1N` (stereo not drawn) [AIA-027] and `Cn1nc(C2CC3CC([S+](C)[O-])CC3C2)c(C(=O)Nc2ccc(F)c(Cl)c2)c1N` (stereo not drawn) [AIA-074] cannot be ordered by EC50: under 100 nM for the first, under 100 nM for the second.

`COc1cccc([C@H]2CC[C@H](c3nn(C)c(N)c3C(=O)Nc3ccc(F)c(Cl)c3)C2)c1` [AIA-276C] and `Cn1nc(C2CCC(c3ccccc3)C2)c(C(=O)Nc2ccc(F)c(Cl)c2)c1N` (single isomer, unassigned) [AIA-202B, 5-Amino-N-(3-chloro-4-fluorophenyl)-1-methyl-3-(3-phenylcyclopentyl)-1H-pyrazole-4-carboxamide] cannot be ordered by EC50: under 100 nM for the first, under 100 nM for the second.

`Cn1nc(C2CC3CNC(=O)CC3C2)c(C(=O)Nc2ccc(F)c(Cl)c2)c1N` (single isomer, unassigned) [AIA-033-B, 5-Amino-N-(3-chloro-4-fluorophenyl)-1-methyl-3-(3-oxooctahydro-1H-cyclopenta[c]pyridin-6-yl)-1H-pyrazole-4-carboxamide] and `Cn1nc(C2CC3CC(S(C)(=O)=O)CC3C2)c(C(=O)Nc2ccc(F)c(Cl)c2)c1N` (stereo not drawn) [AIA-030] cannot be ordered by EC50: under 100 nM for the first, under 100 nM for the second.

First: CC(C)OCC1(O)CC2CC(c3nn(C)c(N)c3C(=O)Nc3ccc(F)c(Cl)c3)CC2C1 (single isomer, unassigned) [AIA-339-1, 5-Amino-N-(3-chloro-4-fluorophenyl)-3-(5-hydroxy-5-(isopropoxymethyl)octahydropentalen-2-yl)-1-methyl-1H-pyrazole-4-carboxamide]
Second: Cn1nc(C2CC3CC(CCO)CC3C2)c(C(=O)Nc2ccc(F)c(Cl)c2)c1N (stereo not drawn) [AIA-019]
The EC50 of the first is higher: 500 to 10000 nM for the first, under 100 nM for the second. The second is the more potent here.

Compared with `Cn1nc(C2CC3CN(C(=O)OC(C)(C)C)CC3C2)c(C(=O)Nc2ccc(F)c(Cl)c2)c1N` (stereo not drawn) [AIA-005], `Cn1cc(C2CCC(c3nn(C)c(N)c3C(=O)Nc3ccc(F)c(Cl)c3)C2)cn1` (single isomer, unassigned) [AIA-004-C, 5-Amino-N-(3-chloro-4-fluorophenyl)-1-methyl-3-(3-(1-methyl-1H-pyrazol-4-yl)cyclopentyl)-1H-pyrazole-4-carboxamide] is higher in EC50: under 100 nM for the first, 100 to 500 nM for the second.

`Cn1cc(C2CCC(c3nn(C)c(N)c3C(=O)Nc3ccc(F)c(Cl)c3)C2)cn1` (single isomer, unassigned) [AIA-004-A, 5-Amino-N-(3-chloro-4-fluorophenyl)-1-methyl-3-(3-(1-methyl-1H-pyrazol-4-yl)cyclopentyl)-1H-pyrazole-4-carboxamide] and `Cn1nc(C2CCC(c3ccccc3)C2)c(C(=O)Nc2ccc(F)c(Cl)c2)c1N` (single isomer, unassigned) [AIA-202A, 5-Amino-N-(3-chloro-4-fluorophenyl)-1-methyl-3-(3-phenylcyclopentyl)-1H-pyrazole-4-carboxamide] cannot be ordered by EC50: under 100 nM for the first, under 100 nM for the second.

Compound `Cn1nc(C2CCN(c3ccccc3)C2)c(C(=O)Nc2ccc(F)c(Cl)c2)c1N` (stereo not drawn) [AIA-262] has an EC50 of 100 to 500 nM.

Same assay, conditions: Hepatitis B virus, HePAD38, 120 h, 5 days, supernatant HBV DNA by qPCR, read-out: Viral Load EC50 Activity range

First: Cn1nc(C2CC3CNC(=O)CC3C2)c(C(=O)Nc2ccc(F)c(Cl)c2)c1N (single isomer, unassigned) [AIA-033-A, 5-Amino-N-(3-chloro-4-fluorophenyl)-1-methyl-3-(3-oxooctahydro-1H-cyclopenta[c]pyridin-6-yl)-1H-pyrazole-4-carboxamide]
Second: CCS(=O)(=O)CC1(O)CC2CC(c3nn(C)c(N)c3C(=O)Nc3ccc(F)c(Cl)c3)CC2C1 (single isomer, unassigned) [AIA-250-1, 5-Amino-N-(3-chloro-4-fluorophenyl)-3-(5-((ethylsulfonyl)nethyl)-5-hydroxyoctahydropentalen-2-yl)-1-methyl-1H-pyrazole-4-carboxamide]
The EC50 of the first is higher: 100 to 500 nM for the first, under 100 nM for the second. The second is the more potent here.

First: Cn1nc(C2CC3CC(O)(CN4CCOCC4)CC3C2)c(C(=O)Nc2ccc(F)c(Cl)c2)c1N (single isomer, unassigned) [AIA-364-2, 5-Amino-N-(3-chloro-4-fluorophenyl)-3-(5-hydroxy-5-(morpholinomethyl)octahydropentalen-2-yl)-1-methyl-1H-pyrazole-4-carboxamide]
Second: Cn1nc(C2CC3CC(O)(CS(=O)(=O)C4CC4)CC3C2)c(C(=O)Nc2ccc(F)c(Cl)c2)c1N (stereo not drawn) [AIA-252-1, 5-Amino-N-(3-chloro-4-fluorophenyl)-3-(5-((cyclopropylsulfonyl)methyl)-5-hydroxyortahydropentalen-2-yl)-1-methyl-1H-pyrazole-4-carboxamide]
The EC50 of the first is higher: 100 to 500 nM for the first, under 100 nM for the second. The second is the more potent here.

First: Cn1nc(C2CCC(c3ccc(Cl)cc3)C2)c(C(=O)Nc2ccc(F)c(Cl)c2)c1N (stereo not drawn) [AIA-274, 5-Amino-N-(3-chloro-4-fluorophenyl)-3-(3-(4-chlorophenyl)cyclopentyl)-1-methyl-1H-pyrazole-4-carboxamide]
Second: COc1ccc([C@H]2CC[C@@H](c3nn(C)c(N)c3C(=O)Nc3ccc(F)c(Cl)c3)C2)cc1 [AIA-003-A, 5-Amino-N-(3-chloro-4-fluorophenyl)-3-((1R,3S)-3-(4-methoxyphenyl)cyclopentyl)-1-methyl-1H-pyrazole-4-carboxamide]
The EC50 of the first is higher: 100 to 500 nM for the first, under 100 nM for the second.

`Cn1nc(C2CC3CC(N4CCCC4)CC3C2)c(C(=O)Nc2ccc(F)c(Cl)c2)c1N` (stereo not drawn) [AIA-040, 5-Amino-N-(3-chloro-4-fluorophenyl)-1-methyl-3-(5-(pyrrolidin-l-yl)octahydropentalen-2-yl)-1H-pyrazole-4-carboxamide] and `Cn1nc(C2CC3CC(N4CCNC(=O)C4)CC3C2)c(C(=O)Nc2ccc(F)c(C#N)c2)c1N` (stereo not drawn) [AIA-246, 5-Amino-N-(3-cyano-4-fluorophenyl)-1-methyl-3-(5-(3-oxopiperazin-l-yl)octahydropentalen-2-yl)-1H-pyrazole-4-carboxamide] cannot be ordered by EC50: under 100 nM for the first, under 100 nM for the second.

First: Cn1cc(-c2ccc([C@H]3CC[C@H](c4nn(C)c(N)c4C(=O)Nc4ccc(F)c(Cl)c4)C3)cc2)cn1 [AIA-050-B, 5-amino-N-(3-chloro-4-fluorophenyl)-1-methyl-3-((1S,3S)-3-(4-(1-methyl-1H-pyrazol-4-yl)phenyl)cyclopentyl)-1H-pyrazole-4-carboxamide]
Second: Cn1nc(C2CCC(c3ccc(OC(F)(F)F)cc3)C2)c(C(=O)Nc2ccc(F)c(Cl)c2)c1N (stereo not drawn) [AIA-292, 5-Amino-N-(3-chloro-4-fluorophenyl)-1-methyl-3-(3-(4-(trifluoromethoxy)phenyl)cyclopentyl)-1H-pyrazole-4-carboxamide]
The EC50 of the first is lower: under 100 nM for the first, 500 to 10000 nM for the second. The first is the more potent here.

First: COc1cccc(C2CCC(c3nn(C)c(N)c3C(=O)Nc3ccc(F)c(Cl)c3)C2)c1 (single isomer, unassigned) [AIA-276D, 5-Amino-N-(3-chloro-4-fluorophenyl)-3-(3-(3-methoxyphenyl)cyclopentyl)-1-methyl-1H-pyrazole-4-carboxamide]
Second: Cn1nc(C2CCC(c3csc(C(F)(F)F)n3)C2)c(C(=O)Nc2ccc(F)c(Cl)c2)c1N (stereo not drawn) [AIA-355, 5-Amino-N-(3-chloro-4-fluorophenyl)-1-methyl-3-(3-(2-(trifluoromethyl)thiazol-4-yl)cyclopentyl)-1H-pyrazole-4-carboxamide]
The EC50 of the first is lower: under 100 nM for the first, 500 to 10000 nM for the second. The first is the more potent here.

First: Cn1nc(C2CC3CC(O)(CSC(C)(C)C)CC3C2)c(C(=O)Nc2ccc(F)c(Cl)c2)c1N (stereo not drawn) [AIA-262-1, 5-Amino-3-(5-((tert-butylthio)methyl)-5-hydroxyoctahydropentalen-2-yl)-N-(3-chloro-4-fluorophenyl)-1-methyl-1H-pyrazole-4-carboxamide]
Second: Cn1nc(C2CC3CC(O)(CS(=O)(=O)CCCN4CCNC(=O)C4)CC3C2)c(C(=O)Nc2ccc(F)c(Cl)c2)c1N (stereo not drawn) [AIA-350, 5-Amino-N-(3-chloro-4-fluorophenyl)-3-(5-hydroxy-5-(((3-(3-oxopiperazin-1-yl)propyl)sulfonyl)methyl)octahydropentalen-2-yl)-1-methyl-1H-pyrazole-4-carboxamide]
The EC50 of the first is lower: under 100 nM for the first, 500 to 10000 nM for the second.
